Test results reported in patent US20160220689A1, “MACROMOLECULES OF DENDRIMER-PLATINUM CONJUGATES” (priority 2013, published 2016).

Assays:
OE21 (head and neck) = test: Sulforhodamine B (SRB) cell growth inhibition assay; conditions: 72 hours, based on equivalent platinum loading, standard drugs on total molecular weight
Method: (§1) Cell growth inhibition was determined using the Sulforhodamine B (SRB) assay (Voigt W., “Sulforhodamine B assay and chemosensitivity” Methods Mol. Med., 2005, 110, 39-48) against various cancer cell lines after 72 hours.
(§2) All solutions were prepared in saline and were stored at −20° C. All values were based on equivalent platinum loading except standard drugs which were calculated on total molecular weight. The results are shown in Table 1 in the micromolar range.

LoVo (colon) = test: as above; conditions: 72 hours, based on equivalent platinum loading, standard drugs on total molecular weight
Method: as §1, §2

SW620 (colon) = test: as above; conditions: 72 hours, based on equivalent platinum loading, standard drugs on total molecular weight
Method: as §1, §2

FADU (head and neck) = test: as above; conditions: 72 hours, based on equivalent platinum loading, standard drugs on total molecular weight
Method: as §1, §2

2008 (ovarian) = test: as above; conditions: 72 hours, based on equivalent platinum loading, standard drugs on total molecular weight
Method: as §1, §2

SW620 cells = test: Xenograft model efficacy study; conditions: IV days 1, 8, 15, Oxaliplatin 5, Compound 1 8.5, Compound 5 9 mg/kg Pt equivalents
Method: Thirteen days later, 50 mice with similar sized tumors (˜110 mm^3) were randomized into 4 groups (n=12). All compounds were dissolved in 5% glucose at the concentration required to achieve administration of 0.1 mL/10 g body eight.

[1] = cited from earlier work
[2] = Maximum tolerated dosage in mice; conditions: intravenous, once weekly for three weeks (day 1, 8 and 15), female Balb/c mice
From the text: Mice were weighed daily and watched for signs of toxicity. Animals were monitored for up to 10 days following the final drug dose. Any mice exceeding ethical endpoints (>20% body weight loss, poor general health) were immediately sacrificed and observations were noted.

[3] = Toxicity study: blood cell counts in tumor-bearing mice; conditions: Oxaliplatin 5, Compound 1 8.5, Compound 5 9 mg/kg Pt equivalents IV days 1, 8, 15
Method: The mice were randomised into 4 groups of n=5 mice, (mean tumor volume ˜90 mm^3) On day one, animals were eye bled in the morning for baseline cell counts and then drug dosing commenced later that day. Drug dosing was performed on days 1, 8 and 15 at the previously determined maximum tolerated doses. All compounds were dissolved in 5% glucose at the concentration required to allow administration of 0.1 mL/10 g body weight. […] Subsequent eye bleeds were performed on days 7, 14 and 26 (Tables 4 A-D, in each case data represented as mean ratio of counts for each time point relative to that at the baseline).

| Compound | GI50 (OE21 (head and neck)) | GI50 (LoVo (colon)) | GI50 (SW620 (colon)) | GI50 (FADU (head and neck)) | GI50 (2008 (ovarian)) | other results |
| --- | --- | --- | --- | --- | --- | --- |
| BHALys[Lys]32[α-Succ-Pro-Val-Gly-Leu-Ile-Gly-amino malonic acid N,O—Pt-diamine]32[ε-PEG1100]32 [Compound 8] | 26.5 µM | 72 µM | 63 µM | 71 µM | 18 µM | – |
| BHALys[Lys]32[α-Succ-Gly-Leu-Phe-Gly-amino malonic acid-N,O—Pt-diammine]32[ε-PEG1100]32 [Compound 7] | > 30 µM | 220 µM | 170 µM | 150 µM | 36 µM | – |
| BHALys[Lys]32[α-Succ-Gly-Gly-Gly-amino malonic acid-O,N—Pt-diammine]32[ε-PEG2200]32 [Compound 3] | – | > 300 µM | > 300 µM | > 300 µM | 69 µM | – |
| BHALys[Lys]32[α-Succ-Gly-Gly-Gly-amino malonic acid-O,O′—Pt-diammine]32[ε-PEG2200]32 [Compound 2] | > 30 µM | 170 µM | > 300 µM | 200 µM | 41 µM | – |
| BHALys[Lys]32[α-Succ-Gly-Gly-Gly-amino malonic acid-Pt-1R,2R-(DACH)]32[ε-PEG2200]32 [Compound 1] | – | 7.5 µM | 3.5 µM | 9 µM | 4.5 µM | Mean Tumor Volume (SW620 cells; Day 1): 100.47 mm^3; Mean Tumor Volume (SW620 cells; Day 7): 184.55 mm^3; Mean Tumor Volume (SW620 cells; Day 14): 283.02 mm^3; Mean Tumor Volume (SW620 cells; Day 21): 316.90 mm^3 |
| N.N.O=C([O-])C1(C(=O)[O-])CCC1.[Pt+2] [Carboplatin, carboplatin, reference compound] | 3.6 µM | 23 µM | 33.5 µM | 20 µM | 4.9 µM | patients developing peripheral neurotoxicity ([1]; patients receiving the drug): 4-6% |
| BHALys[Lys]32[α-diglycolic acid-5R-oxy-(1R,2R)-diaminocyclohexane-oxalato-Platinum (II)]32[ε-PEG2200]32 [Compound 13] | – | – | – | – | – | Tolerated Dose [2]: >35 mg/Kg Pt equivalents |
| BHALys[Lys]32[α-Succ-Gly-Gly-Gly-amino malonic acid-N,O—Pt-1R,2R-(DACH)]32[ε-PEG1100]32 [Compound 4] | 7.4 µM | 13 µM | 6.7 µM | 9.5 µM | 6.4 µM | – |
| oxaliplatin [reference compound] | 1 µM | 0.5 µM | 0.2 µM | 0.9 µM | 0.2 µM | Mean lymphocytes counts (baseline corrected) (SEM) ([3]; Day 1 (baseline)): 1.000 (0.125); Mean lymphocytes counts (baseline corrected) (SEM) ([3]; Day 7): 0.240 (0.130); Mean lymphocytes counts (baseline corrected) (SEM) ([3]; Day 14): 0.302 (0.066); Mean lymphocytes counts (baseline corrected) (SEM) ([3]; Day 26): 0.380 (0.154); Mean Tumor Volume (SW620 cells; Day 1): 100.56 mm^3; Mean Tumor Volume (SW620 cells; Day 7): 203.06 mm^3; Mean Tumor Volume (SW620 cells; Day 14): 340.50 mm^3; Mean Tumor Volume (SW620 cells; Day 21): 501.57 mm^3 |
| BHALys[Lys]32[α-Succ-Gly-Leu-Phe-Gly-amino malonic acid-N,O—Pt-1R,2R-(DACH)]32[ε-PEG1100]32 [Compound 6] | 14.5 µM | 8.1 µM | 4.2 µM | 12 µM | 3.9 µM | – |
| BHALys[Lys]32[α-diglycolic acid-5S-oxy-(1R,2R)-diaminocyclohexane-oxalato-Platinum (II)]32[ε-PEG2200]32 [Compound 14] | – | – | – | – | – | Tolerated Dose [2]: >35 mg/Kg Pt equivalents |
| BHALys[Lys]32[α-Succ-Gly-Leu-Phe-Gly-amino malonic acid-Pt-1R,2R-(DACH)]32[ε-PEG2200]32 [Compound 5] | – | 3 µM | 1.5 µM | 3 µM | 2.5 µM | Mean Tumor Volume (SW620 cells; Day 1): 100.96 mm^3; Mean Tumor Volume (SW620 cells; Day 7): 196.01 mm^3; Mean Tumor Volume (SW620 cells; Day 14): 303.00 mm^3; Mean Tumor Volume (SW620 cells; Day 21): 363.01 mm^3 |
| N.N.[Cl][Pt][Cl] [Cisplatin, cisplatin, reference compound] | 0.4 µM | 2.8 µM | 3.6 µM | 2 µM | 0.5 µM | patients with tinnitus and hearing loss ([1]; patients treated with the drug): up to 31% |
| BHALys[Lys]32[α-thiodiglycolic acid-4-oxy-1,1-cyclohexane dicarboxylic acid —Pt-1R,2R-(DACH)]32[ε-PEG2200]32 [Compound 12] | – | 5 µM | 2.5 µM | 8.5 µM | 6 µM | Tolerated Dose [2]: >60 mg/Kg Pt equivalents |
